Paper PMC4032265 (PLoS ONE, 2014)
Like-named read-outs stand apart in the source and are kept apart here.

Key:
[1] = target: κ opioid receptor (Homo sapiens, UniProt P41145); test: PDSP radioligand binding, κ opioid; conditions: read-out: % inhibition at 10 µM; single concentration 10 µM
[2] = target: T1, M4 muscarinic acetylcholine receptor (Homo sapiens, UniProt P08173); test: PDSP radioligand binding, M4; conditions: read-out: % inhibition at 10 µM; single concentration 10 µM
T1 sequence (P08173 1-479): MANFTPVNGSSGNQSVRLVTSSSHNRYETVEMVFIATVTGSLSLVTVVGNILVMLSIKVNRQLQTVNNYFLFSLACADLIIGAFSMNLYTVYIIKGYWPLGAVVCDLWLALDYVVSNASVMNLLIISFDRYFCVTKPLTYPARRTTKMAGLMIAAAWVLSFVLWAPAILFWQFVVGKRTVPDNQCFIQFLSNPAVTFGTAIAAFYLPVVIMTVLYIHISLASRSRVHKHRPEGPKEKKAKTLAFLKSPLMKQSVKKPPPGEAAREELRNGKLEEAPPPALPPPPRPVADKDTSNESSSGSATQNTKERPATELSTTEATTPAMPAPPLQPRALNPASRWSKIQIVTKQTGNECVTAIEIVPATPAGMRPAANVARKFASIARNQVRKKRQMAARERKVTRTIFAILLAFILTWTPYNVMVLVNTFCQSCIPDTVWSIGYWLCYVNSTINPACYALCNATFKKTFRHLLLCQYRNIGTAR

[3] = target: T2, 5HT2C serotonergic receptor (Homo sapiens, UniProt P28335); test: PDSP radioligand binding, 5HT2C; conditions: for inhibition at 10 µM: read-out: % inhibition at 10 µM; for Ki: full concentration-response curves, n = 3-6 unless noted
T2 sequence (P28335 33-458): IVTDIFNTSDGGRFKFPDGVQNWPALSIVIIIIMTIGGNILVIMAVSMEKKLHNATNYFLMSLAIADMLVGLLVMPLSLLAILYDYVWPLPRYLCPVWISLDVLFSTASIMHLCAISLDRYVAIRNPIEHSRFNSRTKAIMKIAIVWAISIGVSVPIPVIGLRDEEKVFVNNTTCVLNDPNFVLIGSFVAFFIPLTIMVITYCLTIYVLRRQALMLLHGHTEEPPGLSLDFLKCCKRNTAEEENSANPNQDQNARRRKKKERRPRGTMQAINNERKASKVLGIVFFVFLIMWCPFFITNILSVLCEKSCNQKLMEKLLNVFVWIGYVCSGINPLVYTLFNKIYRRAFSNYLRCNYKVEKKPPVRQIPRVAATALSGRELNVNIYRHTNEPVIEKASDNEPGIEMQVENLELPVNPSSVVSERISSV

[4] = target: T3, α2B adrenergic receptor (Homo sapiens, UniProt P18089); test: PDSP radioligand binding, α2B; conditions: for inhibition at 10 µM: read-out: % inhibition at 10 µM, single concentration 10 µM; for Ki: full concentration-response curves, n = 3-6 unless noted
T3 sequence (P18089 1-450): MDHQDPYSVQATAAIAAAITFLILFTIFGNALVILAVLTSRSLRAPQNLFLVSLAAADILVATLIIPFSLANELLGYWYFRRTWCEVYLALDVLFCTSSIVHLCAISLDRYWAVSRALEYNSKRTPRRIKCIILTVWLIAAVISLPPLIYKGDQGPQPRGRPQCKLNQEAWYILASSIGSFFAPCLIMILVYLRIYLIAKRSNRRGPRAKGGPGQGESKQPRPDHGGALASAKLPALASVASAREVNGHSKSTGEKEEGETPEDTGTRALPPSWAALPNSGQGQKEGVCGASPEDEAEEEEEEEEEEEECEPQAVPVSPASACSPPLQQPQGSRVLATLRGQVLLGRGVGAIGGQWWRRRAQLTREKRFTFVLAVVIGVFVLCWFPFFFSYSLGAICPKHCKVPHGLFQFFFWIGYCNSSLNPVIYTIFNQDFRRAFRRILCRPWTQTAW

[5] = target: peripheral benzodiazepine receptor (PBR) (Rattus norvegicus, UniProt P16257); test: PDSP radioligand binding, PBR; conditions: for inhibition at 10 µM: read-out: % inhibition at 10 µM, single concentration 10 µM
[6] = target: T4, σ2 receptor (Rattus norvegicus, UniProt Q5U3Y7); test: PDSP radioligand binding, σ2; conditions: for inhibition at 10 µM: read-out: % inhibition at 10 µM, single concentration 10 µM; for Ki: full curves, n = 2
T4 sequence (Q5U3Y7 1-176): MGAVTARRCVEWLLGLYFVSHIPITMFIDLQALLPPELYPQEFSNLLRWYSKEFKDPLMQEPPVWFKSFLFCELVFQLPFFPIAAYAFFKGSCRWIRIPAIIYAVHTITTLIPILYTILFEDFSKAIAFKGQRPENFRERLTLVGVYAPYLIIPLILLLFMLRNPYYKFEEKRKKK

[7] = target: 5HT6 serotonergic receptor (Homo sapiens, UniProt P50406); test: PDSP radioligand binding, 5HT6; conditions: read-out: % inhibition at 10 µM; single concentration 10 µM
[8] = target: δ opioid receptor (Homo sapiens, UniProt P41143); test: PDSP radioligand binding, δ opioid; conditions: read-out: % inhibition at 10 µM; single concentration 10 µM
[9] = target: D2 dopaminergic receptor (Homo sapiens, UniProt P14416); test: PDSP radioligand binding, D2; conditions: read-out: % inhibition at 10 µM; single concentration 10 µM
[10] = target: 5HT5A serotonergic receptor (Homo sapiens, UniProt P47898); test: PDSP radioligand binding, 5HT5A; conditions: for inhibition at 10 µM: read-out: % inhibition at 10 µM, single concentration 10 µM
[11] = target: 5HT2A serotonergic receptor (Homo sapiens, UniProt P28223); test: PDSP radioligand binding, 5HT2A; conditions: read-out: % inhibition at 10 µM
[12] = target: hERG potassium channel (Homo sapiens, UniProt Q12809); test: PDSP hERG functional assay; type: cell-based; conditions: not binding
[13] = target: T5, α1D adrenergic receptor (Homo sapiens, UniProt P25100); test: PDSP radioligand binding, α1D; conditions: read-out: % inhibition at 10 µM; single concentration 10 µM
T5 sequence (P25100 1-572): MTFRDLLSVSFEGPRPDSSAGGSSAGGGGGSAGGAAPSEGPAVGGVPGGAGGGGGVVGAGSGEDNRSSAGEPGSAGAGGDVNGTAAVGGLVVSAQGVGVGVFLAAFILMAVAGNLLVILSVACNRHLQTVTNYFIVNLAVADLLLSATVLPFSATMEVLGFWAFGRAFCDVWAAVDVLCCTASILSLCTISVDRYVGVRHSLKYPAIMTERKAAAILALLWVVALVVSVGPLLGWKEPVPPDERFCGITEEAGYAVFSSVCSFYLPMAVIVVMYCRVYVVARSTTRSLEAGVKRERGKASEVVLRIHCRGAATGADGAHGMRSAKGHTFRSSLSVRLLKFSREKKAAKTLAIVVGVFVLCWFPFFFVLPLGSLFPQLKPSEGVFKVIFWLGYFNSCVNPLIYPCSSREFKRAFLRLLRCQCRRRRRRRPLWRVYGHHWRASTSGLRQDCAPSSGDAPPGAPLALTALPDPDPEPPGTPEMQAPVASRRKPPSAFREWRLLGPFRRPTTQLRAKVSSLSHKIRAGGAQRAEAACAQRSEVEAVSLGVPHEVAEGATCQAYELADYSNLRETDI

[14] = target: D5 dopaminergic receptor (Homo sapiens, UniProt P21918); test: PDSP radioligand binding, D5; conditions: read-out: % inhibition at 10 µM; single concentration 10 µM
[15] = target: H4 histaminergic receptor (Homo sapiens, UniProt Q9H3N8); test: PDSP radioligand binding, H4; conditions: read-out: % inhibition at 10 µM; single concentration 10 µM
H4 histaminergic receptor, sequence (Q9H3N8 whole entry): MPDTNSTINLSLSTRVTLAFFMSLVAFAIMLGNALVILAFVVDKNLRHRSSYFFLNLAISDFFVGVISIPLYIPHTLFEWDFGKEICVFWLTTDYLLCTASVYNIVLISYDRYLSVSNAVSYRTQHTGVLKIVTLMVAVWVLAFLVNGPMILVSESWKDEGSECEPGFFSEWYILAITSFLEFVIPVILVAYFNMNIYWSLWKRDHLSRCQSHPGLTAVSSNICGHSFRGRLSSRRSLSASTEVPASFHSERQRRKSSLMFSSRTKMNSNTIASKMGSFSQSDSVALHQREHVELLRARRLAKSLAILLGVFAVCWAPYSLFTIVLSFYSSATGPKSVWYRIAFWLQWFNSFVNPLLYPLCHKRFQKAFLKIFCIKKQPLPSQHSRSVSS

κ opioid receptor, sequence (P41145 whole entry): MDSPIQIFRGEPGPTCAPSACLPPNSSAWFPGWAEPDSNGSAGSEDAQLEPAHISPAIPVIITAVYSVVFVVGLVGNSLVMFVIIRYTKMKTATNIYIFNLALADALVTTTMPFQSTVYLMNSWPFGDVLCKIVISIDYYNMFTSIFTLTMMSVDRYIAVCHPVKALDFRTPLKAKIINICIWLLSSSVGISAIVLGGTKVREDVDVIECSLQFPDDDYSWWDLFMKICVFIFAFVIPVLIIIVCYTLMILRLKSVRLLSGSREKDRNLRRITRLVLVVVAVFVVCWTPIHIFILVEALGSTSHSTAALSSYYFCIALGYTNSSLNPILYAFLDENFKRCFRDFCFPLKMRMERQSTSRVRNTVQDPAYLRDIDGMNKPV
δ opioid receptor, sequence (P41143 whole entry): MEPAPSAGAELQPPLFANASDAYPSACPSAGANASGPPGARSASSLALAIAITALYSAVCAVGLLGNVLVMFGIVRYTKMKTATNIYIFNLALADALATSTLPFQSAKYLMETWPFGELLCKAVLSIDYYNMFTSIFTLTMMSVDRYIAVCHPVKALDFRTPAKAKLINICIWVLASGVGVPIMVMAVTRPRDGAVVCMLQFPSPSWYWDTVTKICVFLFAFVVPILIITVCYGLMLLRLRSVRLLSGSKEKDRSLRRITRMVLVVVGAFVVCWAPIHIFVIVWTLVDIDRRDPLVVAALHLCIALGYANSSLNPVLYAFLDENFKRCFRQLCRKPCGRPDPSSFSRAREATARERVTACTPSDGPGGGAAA
5HT2A serotonergic receptor, sequence (P28223 whole entry): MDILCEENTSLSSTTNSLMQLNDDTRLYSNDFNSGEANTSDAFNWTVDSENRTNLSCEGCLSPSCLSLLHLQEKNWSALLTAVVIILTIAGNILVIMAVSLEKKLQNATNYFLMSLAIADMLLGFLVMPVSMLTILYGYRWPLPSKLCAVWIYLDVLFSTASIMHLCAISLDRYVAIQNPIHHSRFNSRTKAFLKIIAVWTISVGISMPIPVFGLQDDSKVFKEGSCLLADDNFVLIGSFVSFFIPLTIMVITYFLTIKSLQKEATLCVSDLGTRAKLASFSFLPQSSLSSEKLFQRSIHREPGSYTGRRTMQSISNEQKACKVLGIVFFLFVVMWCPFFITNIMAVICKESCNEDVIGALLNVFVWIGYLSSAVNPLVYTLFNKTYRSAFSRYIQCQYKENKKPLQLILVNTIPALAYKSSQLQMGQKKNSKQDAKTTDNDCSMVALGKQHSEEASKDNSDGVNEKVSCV
D5 dopaminergic receptor, sequence (P21918 whole entry): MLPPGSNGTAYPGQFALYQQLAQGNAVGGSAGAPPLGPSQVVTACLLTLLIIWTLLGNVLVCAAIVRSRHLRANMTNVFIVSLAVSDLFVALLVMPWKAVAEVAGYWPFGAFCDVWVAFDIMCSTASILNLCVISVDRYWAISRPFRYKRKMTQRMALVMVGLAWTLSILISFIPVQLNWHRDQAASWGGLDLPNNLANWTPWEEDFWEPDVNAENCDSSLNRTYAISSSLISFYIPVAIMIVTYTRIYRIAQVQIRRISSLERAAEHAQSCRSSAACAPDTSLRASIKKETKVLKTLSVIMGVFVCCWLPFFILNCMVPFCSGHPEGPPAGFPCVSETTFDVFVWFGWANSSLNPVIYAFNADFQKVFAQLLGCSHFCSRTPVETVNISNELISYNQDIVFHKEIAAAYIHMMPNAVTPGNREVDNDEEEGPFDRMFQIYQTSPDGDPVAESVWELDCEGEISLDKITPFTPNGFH
5HT6 serotonergic receptor, sequence (P50406 whole entry): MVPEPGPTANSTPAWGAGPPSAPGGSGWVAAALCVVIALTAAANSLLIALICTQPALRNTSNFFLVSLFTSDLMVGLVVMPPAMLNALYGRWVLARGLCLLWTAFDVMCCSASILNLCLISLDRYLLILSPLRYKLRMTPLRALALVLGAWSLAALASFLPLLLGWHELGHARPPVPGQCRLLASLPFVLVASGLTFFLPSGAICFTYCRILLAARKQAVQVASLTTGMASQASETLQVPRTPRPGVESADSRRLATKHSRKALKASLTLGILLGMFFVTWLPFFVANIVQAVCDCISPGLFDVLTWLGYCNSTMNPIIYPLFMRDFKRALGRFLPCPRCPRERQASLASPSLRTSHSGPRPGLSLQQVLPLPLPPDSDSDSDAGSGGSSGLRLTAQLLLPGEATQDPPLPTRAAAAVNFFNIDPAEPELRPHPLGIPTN
5HT5A serotonergic receptor, sequence (P47898 whole entry): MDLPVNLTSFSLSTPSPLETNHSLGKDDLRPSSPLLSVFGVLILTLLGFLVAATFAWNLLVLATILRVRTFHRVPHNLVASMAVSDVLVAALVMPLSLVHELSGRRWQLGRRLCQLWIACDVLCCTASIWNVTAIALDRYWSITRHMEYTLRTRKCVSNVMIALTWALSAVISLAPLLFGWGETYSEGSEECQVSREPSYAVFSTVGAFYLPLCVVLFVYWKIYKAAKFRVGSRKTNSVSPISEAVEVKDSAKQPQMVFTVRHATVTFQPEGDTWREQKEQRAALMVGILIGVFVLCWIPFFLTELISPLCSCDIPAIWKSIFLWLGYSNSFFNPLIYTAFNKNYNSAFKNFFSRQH
D2 dopaminergic receptor, sequence (P14416 whole entry): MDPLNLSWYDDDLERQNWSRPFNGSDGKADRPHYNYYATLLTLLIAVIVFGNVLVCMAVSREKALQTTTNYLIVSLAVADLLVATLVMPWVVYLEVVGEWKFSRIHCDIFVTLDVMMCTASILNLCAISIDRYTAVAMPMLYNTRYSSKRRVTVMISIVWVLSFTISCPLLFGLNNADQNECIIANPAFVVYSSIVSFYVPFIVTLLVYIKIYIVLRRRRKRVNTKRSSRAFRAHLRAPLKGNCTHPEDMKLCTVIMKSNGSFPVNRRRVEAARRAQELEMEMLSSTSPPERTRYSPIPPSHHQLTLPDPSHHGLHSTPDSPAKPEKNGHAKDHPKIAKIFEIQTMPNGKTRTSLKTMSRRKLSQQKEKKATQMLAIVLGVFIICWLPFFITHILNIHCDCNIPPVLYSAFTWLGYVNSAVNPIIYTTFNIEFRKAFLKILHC
hERG potassium channel, sequence (Q12809 whole entry): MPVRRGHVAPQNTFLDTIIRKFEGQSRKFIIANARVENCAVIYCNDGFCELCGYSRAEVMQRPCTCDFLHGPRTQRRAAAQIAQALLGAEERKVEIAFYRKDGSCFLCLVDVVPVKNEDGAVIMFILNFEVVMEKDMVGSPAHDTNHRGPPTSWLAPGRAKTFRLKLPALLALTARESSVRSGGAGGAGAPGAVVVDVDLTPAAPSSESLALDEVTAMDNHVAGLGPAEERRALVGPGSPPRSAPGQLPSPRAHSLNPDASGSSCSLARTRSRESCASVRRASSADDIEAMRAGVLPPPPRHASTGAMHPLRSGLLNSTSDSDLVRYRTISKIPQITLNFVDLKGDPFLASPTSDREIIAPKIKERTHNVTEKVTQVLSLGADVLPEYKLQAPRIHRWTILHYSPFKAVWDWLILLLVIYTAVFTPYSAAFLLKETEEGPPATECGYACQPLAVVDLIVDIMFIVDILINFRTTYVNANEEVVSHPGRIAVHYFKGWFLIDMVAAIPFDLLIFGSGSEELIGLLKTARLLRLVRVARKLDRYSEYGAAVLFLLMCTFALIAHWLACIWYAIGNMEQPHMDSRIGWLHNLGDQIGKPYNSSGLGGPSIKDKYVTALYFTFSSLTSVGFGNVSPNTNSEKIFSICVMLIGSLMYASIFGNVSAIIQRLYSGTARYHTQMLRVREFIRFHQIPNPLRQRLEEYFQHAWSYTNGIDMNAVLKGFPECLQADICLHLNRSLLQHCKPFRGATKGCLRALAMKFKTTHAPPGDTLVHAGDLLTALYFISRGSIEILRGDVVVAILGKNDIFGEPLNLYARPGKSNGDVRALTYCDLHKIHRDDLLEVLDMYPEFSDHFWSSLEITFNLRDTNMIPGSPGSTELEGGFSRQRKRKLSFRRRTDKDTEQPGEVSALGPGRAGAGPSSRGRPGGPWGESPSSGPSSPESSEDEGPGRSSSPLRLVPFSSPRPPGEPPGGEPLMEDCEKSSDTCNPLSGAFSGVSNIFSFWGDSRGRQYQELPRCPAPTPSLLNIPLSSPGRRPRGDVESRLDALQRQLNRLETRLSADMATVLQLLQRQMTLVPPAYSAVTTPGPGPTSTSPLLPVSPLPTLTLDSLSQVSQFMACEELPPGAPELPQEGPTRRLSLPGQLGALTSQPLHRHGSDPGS

SMILES | inhibition at 10 µM [1] | inhibition at 10 µM [2] | inhibition at 10 µM [4] | inhibition at 10 µM [5] | inhibition at 10 µM [6] | inhibition at 10 µM [7] | inhibition at 10 µM [8] | inhibition at 10 µM [9] | inhibition at 10 µM [10] | inhibition at 10 µM [11] | inhibition at 10 µM [13] | inhibition at 10 µM [14] | inhibition at 10 µM ([3]; single concentration 10 µM) | Ki [4] | Ki [6] | inhibition at 10 µM ([11]; single concentration 10 µM) | Ki [3] | inhibition at 10 µM [15] | also measured
CNC(=O)[C@@]12C[C@@H]1[C@@H](n1cnc3c(NC)nc(C#Cc4ccc(F)c(F)c4)nc31)[C@H](O)[C@@H]2O [Compound 5] | 21% | 0% | 0% | 25% | 33% | 15% | 9% | 18% | 5% | 11% | 0% | 6% |  |  |  |  |  |  | inhibition at 10 µM [3]: 1%; Ki [12]: 7930 nM
O[C@@H]1[C@H](O)[C@@H]2C[C@@H]2[C@H]1n1cnc2c(NCc3cccc(Cl)c3)nc(C#Cc3ccc(F)c(F)c3)nc21 [Compound 6] | 29% | 32% | 0% | 63% | 69% | 0% | 11% | 9% | 15% |  | 5% | 3% | 0% | 5970 ± 1530 nM | 2940 ± 1500 nM | 6% |  |  | Ki ([5]; full curves, n = 2): 1700 nM
O[C@@H]1[C@H](O)[C@@H]2C[C@@H]2[C@H]1n1cnc2c(NCc3cccc(Cl)c3)ncnc21 [Compound 7] | 4% | 4% | 42% | 13% | 66% | 39% | 7% | 6% | 16% |  | 30% | 7% | 51% | 6340 ± 1470 nM | 2680 ± 470 nM | 7% | 1740 nM | 0% | 
Fc1ccc(C#Cc2nc(NCc3cccc(Cl)c3)c3nc[nH]c3n2)cc1F [Compound 8] | 15% | 4% | 63% | 13% | 14% | 0% | 12% | 0% | 11% |  | 0% | 9% | 11% | 1090 ± 140 nM |  | 9% |  | 5% | 
Clc1cccc(CNc2nc(Cl)nc3[nH]cnc23)c1 [Compound 9] | 0% | 0% | 95% | 8% | 0% | 31% | 7% | 0% | 38% | 0% | 0% | 0% | 56% | 61 ± 20 nM |  |  | 3320 ± 320 nM | 5% | Ki [10]: 4490 nM
